Data taken from ChEMBL document CHEMBL3045546, “Synthesis and antimicrobial screening of 4-thiazolidinone and 2-azetidinone derivatives of piperazine” (2013).
Values after ≈ are worked out from the molar mass of the structure shown.

Assays:
Format in all cases: functional
Klebsiella pneumoniae = assay: Antimicrobial activity against Klebsiella pneumoniae ATCC 13883 assessed as growth inhibition by broth dilution method
Salmonella typhi = assay: Antimicrobial activity against Salmonella enterica subsp. enterica serovar Typhi ATCC 19430 assessed as growth inhibition by broth dilution method
Staphylococcus hominis = assay: Antimicrobial activity against Staphylococcus hominis ATCC 27844 assessed as growth inhibition by broth dilution method
Rhizoctonia solani = assay: Antimicrobial activity against Rhizoctonia solani ATCC 76131 assessed as growth inhibition by broth dilution method
Escherichia coli = assay: Antimicrobial activity against Escherichia coli ATCC 25922 assessed as growth inhibition by broth dilution method
Fusarium solani = assay: Antimicrobial activity against Fusarium solani ATCC 38136 assessed as growth inhibition by broth dilution method
Bacillus cereus = assay: Antimicrobial activity against Bacillus cereus ATCC 11778 assessed as growth inhibition by broth dilution method
Micrococcus luteus = assay: Antimicrobial activity against Micrococcus luteus ATCC 4698 assessed as growth inhibition by broth dilution method
Proteus mirabilis = assay: Antimicrobial activity against Proteus mirabilis ATCC 49565 assessed as growth inhibition by broth dilution method
Microsporum canis = assay: Antimicrobial activity against Arthroderma otae ATCC 11622 assessed as growth inhibition by broth dilution method
Pseudomonas aeruginosa = assay: Antimicrobial activity against Pseudomonas aeruginosa ATCC 10145 assessed as growth inhibition by broth dilution method
Candida albicans = assay: Antimicrobial activity against Candida albicans ATCC 10231 assessed as growth inhibition by broth dilution method
Trichoderma viride = assay: Antimicrobial activity against Hypocrea rufa ATCC 52440 assessed as growth inhibition by broth dilution method
Bacillus pumilus = assay: Antimicrobial activity against Bacillus pumilus ATCC 14884 assessed as growth inhibition by broth dilution method
Staphylococcus aureus = assay: Antimicrobial activity against Staphylococcus aureus ATCC 25923 assessed as growth inhibition by broth dilution method
Aspergillus flavus = assay: Antimicrobial activity against Aspergillus flavus ATCC 15517 assessed as growth inhibition by broth dilution method
Bacillus subtilis = assay: Antimicrobial activity against Bacillus subtilis ATCC 6633 assessed as growth inhibition by broth dilution method
Aspergillus fumigatus = assay: Antimicrobial activity against Aspergillus fumigatus assessed as growth inhibition by broth dilution method
Aspergillus awamori = assay: Antimicrobial activity against Aspergillus awamori ATCC 22342 assessed as growth inhibition by broth dilution method
[1] = test system: Staphylococcus epidermidis; assay: Antimicrobial activity against Staphylococcus epidermidis ATCC 12228 assessed as growth inhibition by broth dilution method
Alternaria alternata = assay: Antimicrobial activity against Alternaria alternata ATCC 66868 assessed as growth inhibition by broth dilution method
Aspergillus niger = assay: Antimicrobial activity against Aspergillus niger ATCC 9142 assessed as growth inhibition by broth dilution method
Trichophyton longifusum = assay: Antimicrobial activity against Trichophyton longifusum ATCC 22397 assessed as growth inhibition by broth dilution method
Proteus vulgaris = assay: Antimicrobial activity against Proteus vulgaris ATCC 13315 assessed as growth inhibition by broth dilution method

Row | SMILES | MIC (Klebsiella pneumoniae) | MIC (Salmonella typhi) | MIC (Staphylococcus hominis) | MIC (Rhizoctonia solani) | MIC (Escherichia coli) | MIC (Fusarium solani) | MIC (Bacillus cereus) | MIC (Micrococcus luteus) | MIC (Proteus mirabilis) | MIC (Microsporum canis) | MIC (Pseudomonas aeruginosa) | MIC (Candida albicans) | MIC (Trichoderma viride) | MIC (Bacillus pumilus) | MIC (Staphylococcus aureus) | MIC (Aspergillus flavus) | MIC (Bacillus subtilis) | MIC (Aspergillus fumigatus) | MIC (Aspergillus awamori) | MIC [1] | further results
1 | COc1ccc(C2SCC(=O)N2CCN2CCNCC2)cc1O (stereo not given) | 4.68 µg/mL (≈ 13.9 µM) | 9.37 µg/mL (≈ 27.8 µM) | 9.37 µg/mL (≈ 27.8 µM) | 9.37 µg/mL (≈ 27.8 µM) | 9.37 µg/mL (≈ 27.8 µM) | 18.8 µg/mL (≈ 55.6 µM) | 4.68 µg/mL (≈ 13.9 µM) | 9.37 µg/mL (≈ 27.8 µM) | 9.37 µg/mL (≈ 27.8 µM) | 9.37 µg/mL (≈ 27.8 µM) | 9.37 µg/mL (≈ 27.8 µM) | 9.37 µg/mL (≈ 27.8 µM) | 18.8 µg/mL (≈ 55.6 µM) | 9.37 µg/mL (≈ 27.8 µM) | 9.37 µg/mL (≈ 27.8 µM) | 9.37 µg/mL (≈ 27.8 µM) | 9.37 µg/mL (≈ 27.8 µM) | 9.37 µg/mL (≈ 27.8 µM) | 9.37 µg/mL (≈ 27.8 µM) | 9.37 µg/mL (≈ 27.8 µM) | MIC (Alternaria alternata): 18.8 µg/mL (≈ 55.6 µM); MIC (Aspergillus niger): 18.8 µg/mL (≈ 55.6 µM); MIC (Trichophyton longifusum): 18.8 µg/mL (≈ 55.6 µM); MIC (Proteus vulgaris): 9.37 µg/mL (≈ 27.8 µM)
2 | O=C(CCl)N1CCN(CCN2C(=O)C(Cl)C2c2ccco2)CC1 (stereo not given) | 75 µg/mL (≈ 208 µM) | 150 µg/mL (≈ 416 µM) | 75 µg/mL (≈ 208 µM) | 300 µg/mL (≈ 833 µM) | 75 µg/mL (≈ 208 µM) | 150 µg/mL (≈ 416 µM) | 75 µg/mL (≈ 208 µM) | 150 µg/mL (≈ 416 µM) | 150 µg/mL (≈ 416 µM) | 150 µg/mL (≈ 416 µM) | 150 µg/mL (≈ 416 µM) | 300 µg/mL (≈ 833 µM) | 300 µg/mL (≈ 833 µM) | 75 µg/mL (≈ 208 µM) | 150 µg/mL (≈ 416 µM) | 300 µg/mL (≈ 833 µM) | 150 µg/mL (≈ 416 µM) | 300 µg/mL (≈ 833 µM) | 150 µg/mL (≈ 416 µM) | 75 µg/mL (≈ 208 µM) | MIC (Alternaria alternata): 150 µg/mL (≈ 416 µM); MIC (Aspergillus niger): 150 µg/mL (≈ 416 µM); MIC (Trichophyton longifusum): 300 µg/mL (≈ 833 µM); MIC (Proteus vulgaris): 75 µg/mL (≈ 208 µM)
3 | O=C(CCl)N1CCN(CCN2C(=O)C(Cl)C2c2ccccc2)CC1 (stereo not given) | 37.5 µg/mL (≈ 101 µM) | 37.5 µg/mL (≈ 101 µM) | 37.5 µg/mL (≈ 101 µM) | 75 µg/mL (≈ 203 µM) | 37.5 µg/mL (≈ 101 µM) | 75 µg/mL (≈ 203 µM) | 18.8 µg/mL (≈ 50.6 µM) | 18.8 µg/mL (≈ 50.6 µM) | 18.8 µg/mL (≈ 50.6 µM) | 75 µg/mL (≈ 203 µM) | 18.8 µg/mL (≈ 50.6 µM) | 75 µg/mL (≈ 203 µM) | 75 µg/mL (≈ 203 µM) | 18.8 µg/mL (≈ 50.6 µM) | 18.8 µg/mL (≈ 50.6 µM) | 75 µg/mL (≈ 203 µM) | 75 µg/mL (≈ 203 µM) | 75 µg/mL (≈ 203 µM) | 75 µg/mL (≈ 203 µM) | 37.5 µg/mL (≈ 101 µM) | MIC (Alternaria alternata): 37.5 µg/mL (≈ 101 µM); MIC (Aspergillus niger): 75 µg/mL (≈ 203 µM); MIC (Trichophyton longifusum): 37.5 µg/mL (≈ 101 µM); MIC (Proteus vulgaris): 37.5 µg/mL (≈ 101 µM)
4 | COc1ccc(C2C(Cl)C(=O)N2CCN2CCN(C(=O)CCl)CC2)cc1O (stereo not given) | 9.37 µg/mL (≈ 22.5 µM) | 4.68 µg/mL (≈ 11.2 µM) | 9.37 µg/mL (≈ 22.5 µM) | 18.8 µg/mL (≈ 45 µM) | 9.37 µg/mL (≈ 22.5 µM) | 18.8 µg/mL (≈ 45 µM) | 9.37 µg/mL (≈ 22.5 µM) | 4.68 µg/mL (≈ 11.2 µM) | 9.37 µg/mL (≈ 22.5 µM) | 18.8 µg/mL (≈ 45 µM) | 9.37 µg/mL (≈ 22.5 µM) | 18.8 µg/mL (≈ 45 µM) | 18.8 µg/mL (≈ 45 µM) | 9.37 µg/mL (≈ 22.5 µM) | 9.37 µg/mL (≈ 22.5 µM) | 18.8 µg/mL (≈ 45 µM) | 4.68 µg/mL (≈ 11.2 µM) | 18.8 µg/mL (≈ 45 µM) | 18.8 µg/mL (≈ 45 µM) | 9.37 µg/mL (≈ 22.5 µM) | MIC (Alternaria alternata): 9.73 µg/mL (≈ 23.4 µM); MIC (Aspergillus niger): 18.8 µg/mL (≈ 45 µM); MIC (Trichophyton longifusum): 9.73 µg/mL (≈ 23.4 µM); MIC (Proteus vulgaris): 9.37 µg/mL (≈ 22.5 µM)
5 | Clc1ccccc1C(c1ccccc1)(c1ccccc1)n1ccnc1 [CLOTRIMAZOLE] | – | – | – | 2.34 µg/mL (≈ 6.79 µM) | – | 4.68 µg/mL (≈ 13.6 µM) | – | – | – | 4.68 µg/mL (≈ 13.6 µM) | – | 2.34 µg/mL (≈ 6.79 µM) | 2.34 µg/mL (≈ 6.79 µM) | – | – | 2.34 µg/mL (≈ 6.79 µM) | – | 4.68 µg/mL (≈ 13.6 µM) | 4.68 µg/mL (≈ 13.6 µM) | – | MIC (Alternaria alternata): 1.17 µg/mL (≈ 3.39 µM); MIC (Aspergillus niger): 2.34 µg/mL (≈ 6.79 µM); MIC (Trichophyton longifusum): 4.68 µg/mL (≈ 13.6 µM)
6 | O=C(O)c1cn(C2CC2)c2cc(N3CCNCC3)c(F)cc2c1=O [CIPROFLOXACIN] | 2.34 µg/mL (≈ 7.06 µM) | 2.34 µg/mL (≈ 7.06 µM) | 2.34 µg/mL (≈ 7.06 µM) | – | 2.34 µg/mL (≈ 7.06 µM) | – | 2.34 µg/mL (≈ 7.06 µM) | 2.34 µg/mL (≈ 7.06 µM) | 2.34 µg/mL (≈ 7.06 µM) | – | 2.34 µg/mL (≈ 7.06 µM) | – | – | 2.34 µg/mL (≈ 7.06 µM) | 2.34 µg/mL (≈ 7.06 µM) | – | 2.34 µg/mL (≈ 7.06 µM) | – | – | 2.34 µg/mL (≈ 7.06 µM) | MIC (Proteus vulgaris): 2.34 µg/mL (≈ 7.06 µM)
